From paper PMC3348654 (The Journal of Neuroscience, 2012) come the findings set out here.

Data set [1] in a line: C and EC metabolite levels in rat brain tissue after 10 days repeated dosing. Format: in vivo. Particulars: rats, following repeated dosing with GP or with Mo.
Data set [2] deals with CREB (Ser133). Briefly: Phospho-CREB immunoassay in hippocampal slices. The data set is classed as cell-based. As to conditions: 300 nM, 5 hours, hippocampal slices from old Tg2576 mice, versus vehicle.
Data set [3] deals with hippocampal slices from Tg2576 mice. Briefly: Electrophysiological recordings. Particulars: 300 nM, 4–5 h, hippocampal slices from old Tg2576 mice, versus vehicle. Format: cell-based.
Data set [4] has as its system CaMKII. The data set is described as follows: Western blot of phospho- and total CaMKII in hippocampal slices. Format: cell-based. Particulars: 300 nM, 5 hours, hippocampal slices from old Tg2576 mice. For orientation: A western blot detects proteins with antibodies after separation by electrophoresis.
The subject of data set [5] is Erk/MAP kinase 1/2 (Thr185/Tyr187). Briefly: Multiplex phospho-Erk1/2 immunoassay in hippocampal slices. The data set is classed as cell-based. As to conditions: 300 nM, 5 hours, hippocampal slices from old Tg2576 mice.
Data set [6] has as its system PKA. The data set is described as follows: PKA activity assay and PKA IIa protein content in hippocampal slices. The data set is classed as cell-based. Particulars: 300 nM, 5 hours, hippocampal slices from old Tg2576 mice.
Data set [7] concerns brain slices from wild type mice. The data set is described as follows: Electrophysiological recordings in brain slices from age-matched wild type mice. The data set is classed as cell-based. Particulars: 300 nM.
The subject of data set [8] is MEK1 (Ser222). Briefly: Multiplex phospho-MEK immunoassay in hippocampal slices. The data set is classed as cell-based. Particulars: 300 nM, 5 hours, hippocampal slices from old Tg2576 mice.

Regarding `Oc1cc(O)c2c(c1)OC(c1ccc(O)c(O)c1)C(O)C2` (single isomer, unassigned; (+)) [C, (+)-catechin], the “free C and EC contents in the brain” value in data set [1] is “trace contents (below levels for quantification)”.

Take `COc1cc([C@H]2Oc3cc(O)cc(O[C@@H]4O[C@H](C(=O)O)[C@@H](O)[C@H](O)[C@H]4O)c3C[C@H]2O)ccc1O` [3’-O-Me-EC-Gluc, 3’-O-methyl-epicatechin-5-O-β-glucuronide]: the “levels of [Ser133]-phosphorylated, active CREB” value in data set [2] was “significantly increased”. The “basal synaptic transmission in the CA1 region” value in data set [3] was “significantly increased”. Moreover, in data set [4], the “level of [Thr286]-phosphorylated, active CaMKII” value is given as “significantly increased” and the “level of total CaMKII” value was “without influencing”. Moreover, the “phosphorylation status of Erk1/2 (Thr185/Tyr187)” value in data set [5] is on record as “did not modulate”. Also, in data set [6], the “PKA (PKA activity assay and PKA IIa protein content)” value is listed as “nor did it affect”. Also, in data set [7], the LTP result is “did not have any effect” and the basal synaptic transmission result is given as “did not have any effect”. For the same compound, in data set [8], the “phosphorylation status of MEK” value is recorded as “did not modulate”.

Take `Oc1cc(O)c2c(c1)O[C@H](c1ccc(O)c(O)c1)[C@H](O)C2` [EC, (−)-epicatechin]: the “free C and EC contents in the brain” value in data set [1] is “trace contents (below levels for quantification)”.
